Measured values as given in ChEMBL document CHEMBL5665443, “Enzyme Inhibitor Single Concentration assay results for EUbOPEN Chemogenomics Library” (2024).

Columns and labels:
Conditions in all cases: Hit No
[1] = biological target: Methyl-CpG-binding domain protein 4 (Homo sapiens) (UniProt O95243);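 further: MBD4 activity read as fluorescence at 594 nm from cleavage and release of a quenched duplex DNA oligonucleotide, with APE1 coupled to incise the strand and raise turnover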
Description: Inhibition of MBD4 by quantifying inhibition of MBD4-mediated cleavage and dissociation of quenched duplex DNA oligonucleotides, measured as fluorescence at 594 nm. To generate a functional strand incision and increase turn-over this assay is coupled to APE1.

[2] = biological target: Uracil-DNA glycosylase (Homo sapiens) (UniProt P13051);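 further: UNG excision on a quenched double-stranded DNA oligo probe, with APE1 added for strand incision and turnover, read as fluorescence at 594 nm as strands separate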
Description: Inhibition of UNG by quantifying inhibition of UNG-mediated cleavage and dissociation of quenched duplex DNA oligonucleotides, measured as fluorescence at 594 nm. To generate a functional strand incision and increase turn-over this assay is coupled to APE1.

[3] = biological target: N-glycosylase/DNA lyase (Homo sapiens) (UniProt O15527);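 further: OGG1 cleavage of a quenched duplex DNA oligonucleotide, coupled to APE1 for strand incision, read as fluorescence at 594 nm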
Description: Inhibition of OGG1 by quantifying inhibition of OGG1-mediated cleavage and dissociation of quenched duplex DNA oligonucleotides, measured as fluorescence at 594 nm. To generate a functional strand incision and increase turn-over this assay is coupled to APE1.

[4] = biological target: Endonuclease 8-like 1 (Homo sapiens) (UniProt Q96FI4);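 further: fluorescence at 594 nm from quenched duplex DNA oligonucleotides released by NEIL1 cleavage and strand separation, reported as reduction of this enzyme activity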
Description: Inhibition of NEIL1 by quantifying inhibition of NEIL1-mediated cleavage and dissociation of quenched duplex DNA oligonucleotides, measured as fluorescence at 594 nm.

[5] = biological target: T1, Endonuclease 8-like 2 (Homo sapiens) (UniProt Q969S2);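 further: fluorescence at 594 nm reports NEIL2 cutting and release of a quenched double-stranded DNA oligo substrate, reduced signal read as inhibition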
T1 sequence (whole entry): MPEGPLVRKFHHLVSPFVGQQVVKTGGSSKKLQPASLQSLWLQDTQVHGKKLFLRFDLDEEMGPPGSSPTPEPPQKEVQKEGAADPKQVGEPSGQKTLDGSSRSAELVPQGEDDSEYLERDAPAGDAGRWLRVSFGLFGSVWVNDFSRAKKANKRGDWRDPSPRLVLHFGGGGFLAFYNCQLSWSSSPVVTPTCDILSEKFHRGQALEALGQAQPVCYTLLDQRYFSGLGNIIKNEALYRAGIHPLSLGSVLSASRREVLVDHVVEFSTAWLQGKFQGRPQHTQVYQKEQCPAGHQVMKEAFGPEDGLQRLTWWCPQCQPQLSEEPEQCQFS
Description: Inhibition of NEIL2 by quantifying inhibition of NEIL2-mediated cleavage and dissociation of quenched duplex DNA oligonucleotides, measured as fluorescence at 594 nm.

[6] = biological target: G/T mismatch-specific thymine DNA glycosylase (Homo sapiens) (UniProt Q13569);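 further: human TDG cleavage of quenched duplex DNA oligonucleotides coupled to APE1, strand release read as fluorescence at 594 nm, inhibition of TDG activity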
Description: Inhibition of TDG by quantifying inhibition of TDG-mediated cleavage and dissociation of quenched duplex DNA oligonucleotides, measured as fluorescence at 594 nm. To generate a functional strand incision and increase turn-over this assay is coupled to APE1.

[7] = biological target: T2, Single-strand selective monofunctional uracil DNA glycosylase (Homo sapiens) (UniProt Q53HV7);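 further: enzymatic SMUG1 assay coupled with APE1, reading fluorescence at 594 nm released when a quenched double-stranded DNA oligonucleotide substrate is cleaved and separated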
T2 sequence (whole entry): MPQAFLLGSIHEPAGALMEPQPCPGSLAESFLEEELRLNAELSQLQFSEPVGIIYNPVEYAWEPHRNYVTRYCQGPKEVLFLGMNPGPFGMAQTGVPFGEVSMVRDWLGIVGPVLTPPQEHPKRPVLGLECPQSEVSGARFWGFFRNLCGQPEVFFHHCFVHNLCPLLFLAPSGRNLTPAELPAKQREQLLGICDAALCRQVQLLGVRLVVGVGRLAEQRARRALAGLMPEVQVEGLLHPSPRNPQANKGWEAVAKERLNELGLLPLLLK
Description: Inhibition of SMUG1 by quantifying inhibition of SMUG1-mediated cleavage and dissociation of quenched duplex DNA oligonucleotides, measured as fluorescence at 594 nm. To generate a functional strand incision and increase turn-over this assay is coupled to APE1.

[8] = biological target: T3, Adenine DNA glycosylase (Homo sapiens) (UniProt Q9UIF7);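 further: human MUTYH activity read as 594 nm fluorescence from cleavage and release of a quenched DNA duplex, coupled with APE1 for strand incision, lower signal meaning inhibition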
T3 sequence (whole entry): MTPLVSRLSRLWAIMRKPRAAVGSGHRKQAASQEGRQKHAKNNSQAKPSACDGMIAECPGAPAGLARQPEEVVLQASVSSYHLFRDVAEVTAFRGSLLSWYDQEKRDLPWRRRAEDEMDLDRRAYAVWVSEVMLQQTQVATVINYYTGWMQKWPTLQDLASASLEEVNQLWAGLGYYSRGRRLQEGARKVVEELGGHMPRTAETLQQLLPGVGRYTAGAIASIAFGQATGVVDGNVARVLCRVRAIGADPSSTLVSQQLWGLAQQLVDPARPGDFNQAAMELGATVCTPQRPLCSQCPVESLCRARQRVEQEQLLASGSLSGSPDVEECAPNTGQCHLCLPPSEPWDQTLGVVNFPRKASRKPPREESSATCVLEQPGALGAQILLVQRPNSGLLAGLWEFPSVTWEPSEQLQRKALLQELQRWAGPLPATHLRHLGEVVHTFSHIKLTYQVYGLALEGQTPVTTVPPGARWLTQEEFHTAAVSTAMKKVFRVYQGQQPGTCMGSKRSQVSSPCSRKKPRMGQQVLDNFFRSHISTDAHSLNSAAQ
Description: Inhibition of MUTYH by quantifying inhibition of MUTYH-mediated cleavage and dissociation of quenched duplex DNA oligonucleotides, measured as fluorescence at 594 nm. To generate a functional strand incision and increase turn-over this assay is coupled to APE1.

[9] = biological target: T4, Endonuclease III-like protein 1 (Homo sapiens) (UniProt P78549);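 further: enzyme assay tracking NTHL1 cutting and release of a quenched double-stranded DNA oligo substrate, read as fluorescence at 594 nm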
T4 sequence (whole entry): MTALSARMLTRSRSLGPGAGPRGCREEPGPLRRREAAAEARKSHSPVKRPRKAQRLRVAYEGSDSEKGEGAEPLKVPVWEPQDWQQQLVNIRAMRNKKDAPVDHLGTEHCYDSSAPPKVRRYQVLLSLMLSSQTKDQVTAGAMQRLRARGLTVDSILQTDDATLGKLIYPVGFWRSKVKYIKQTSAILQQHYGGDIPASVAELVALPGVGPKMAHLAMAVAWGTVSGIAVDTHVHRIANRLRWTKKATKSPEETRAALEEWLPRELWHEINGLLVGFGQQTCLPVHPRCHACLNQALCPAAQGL
Description: Inhibition of NTHL1 by quantifying inhibition of NTHL1-mediated cleavage and dissociation of quenched duplex DNA oligonucleotides, measured as fluorescence at 594 nm.

Chain of N-glycosylase/DNA lyase (Homo sapiens) (O15527 whole entry): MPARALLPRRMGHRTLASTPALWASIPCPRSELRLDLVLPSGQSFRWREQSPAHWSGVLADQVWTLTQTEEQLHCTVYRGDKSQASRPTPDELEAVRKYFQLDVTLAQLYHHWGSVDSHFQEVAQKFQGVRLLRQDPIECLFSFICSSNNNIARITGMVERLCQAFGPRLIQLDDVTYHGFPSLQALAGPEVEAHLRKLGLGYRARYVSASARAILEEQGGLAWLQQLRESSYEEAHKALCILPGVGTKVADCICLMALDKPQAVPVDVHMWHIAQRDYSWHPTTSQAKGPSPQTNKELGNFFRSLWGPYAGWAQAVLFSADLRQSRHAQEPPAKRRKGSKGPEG
Chain of Methyl-CpG-binding domain protein 4 (Homo sapiens) (O95243 whole entry, the tested form may be a part): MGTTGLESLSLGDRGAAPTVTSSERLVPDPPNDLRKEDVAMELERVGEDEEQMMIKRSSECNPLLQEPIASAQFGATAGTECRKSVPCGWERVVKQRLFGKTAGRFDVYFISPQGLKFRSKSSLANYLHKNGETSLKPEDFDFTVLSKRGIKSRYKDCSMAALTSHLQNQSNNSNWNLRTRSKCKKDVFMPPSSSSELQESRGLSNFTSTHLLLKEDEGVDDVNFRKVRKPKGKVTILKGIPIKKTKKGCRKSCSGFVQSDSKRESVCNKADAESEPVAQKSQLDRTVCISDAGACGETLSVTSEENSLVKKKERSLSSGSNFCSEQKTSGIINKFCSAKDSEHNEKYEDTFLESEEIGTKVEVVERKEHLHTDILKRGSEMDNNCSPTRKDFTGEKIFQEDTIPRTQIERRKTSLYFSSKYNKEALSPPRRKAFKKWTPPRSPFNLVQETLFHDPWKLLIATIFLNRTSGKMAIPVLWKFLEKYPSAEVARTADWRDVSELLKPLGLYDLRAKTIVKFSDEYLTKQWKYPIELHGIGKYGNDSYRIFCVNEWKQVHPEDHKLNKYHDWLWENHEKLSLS
Chain of G/T mismatch-specific thymine DNA glycosylase (Homo sapiens) (Q13569 whole entry): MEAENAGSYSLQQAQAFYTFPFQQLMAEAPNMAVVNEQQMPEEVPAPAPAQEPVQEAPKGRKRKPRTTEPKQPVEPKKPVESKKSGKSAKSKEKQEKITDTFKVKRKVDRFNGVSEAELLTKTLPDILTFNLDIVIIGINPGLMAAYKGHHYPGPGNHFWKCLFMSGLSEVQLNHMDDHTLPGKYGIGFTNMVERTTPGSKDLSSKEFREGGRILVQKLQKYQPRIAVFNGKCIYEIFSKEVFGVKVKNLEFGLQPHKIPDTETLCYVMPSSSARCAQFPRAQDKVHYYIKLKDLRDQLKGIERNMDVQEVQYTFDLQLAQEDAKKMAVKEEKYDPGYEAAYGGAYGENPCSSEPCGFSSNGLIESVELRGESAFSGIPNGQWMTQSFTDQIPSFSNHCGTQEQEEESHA
Chain of Uracil-DNA glycosylase (Homo sapiens) (P13051 whole entry): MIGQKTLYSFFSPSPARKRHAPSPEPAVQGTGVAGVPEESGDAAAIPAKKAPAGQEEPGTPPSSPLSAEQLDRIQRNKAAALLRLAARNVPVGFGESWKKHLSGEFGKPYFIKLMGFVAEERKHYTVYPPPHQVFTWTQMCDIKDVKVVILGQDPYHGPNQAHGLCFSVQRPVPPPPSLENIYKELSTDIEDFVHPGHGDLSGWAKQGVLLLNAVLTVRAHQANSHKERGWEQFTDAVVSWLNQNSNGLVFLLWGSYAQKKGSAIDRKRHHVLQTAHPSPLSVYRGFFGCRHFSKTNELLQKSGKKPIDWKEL
Chain of Endonuclease 8-like 1 (Homo sapiens) (Q96FI4 whole entry): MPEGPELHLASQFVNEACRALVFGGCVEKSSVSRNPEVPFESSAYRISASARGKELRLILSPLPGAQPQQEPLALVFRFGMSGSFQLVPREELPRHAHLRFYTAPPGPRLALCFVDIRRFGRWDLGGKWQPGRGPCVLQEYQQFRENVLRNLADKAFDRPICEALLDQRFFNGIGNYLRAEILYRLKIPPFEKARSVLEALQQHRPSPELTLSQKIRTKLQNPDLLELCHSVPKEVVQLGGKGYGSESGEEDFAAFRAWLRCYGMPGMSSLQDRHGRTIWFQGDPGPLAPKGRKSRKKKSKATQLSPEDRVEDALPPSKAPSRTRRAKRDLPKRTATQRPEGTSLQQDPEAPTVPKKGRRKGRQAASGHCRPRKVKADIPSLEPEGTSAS

Compound | inhibition ([1]; Compound Concentration 1.0 uM) [%] | inhibition ([2]; Compound Concentration 1.0 uM) [%] | inhibition ([3]; Compound Concentration 1.0 uM) [%] | inhibition ([4]; Compound Concentration 1.0 uM) [%] | inhibition ([5]; Compound Concentration 1.0 uM) [%] | inhibition ([6]; Compound Concentration 1.0 uM) [%] | inhibition ([7]; Compound Concentration 1.0 uM) [%] | inhibition ([8]; Compound Concentration 1.0 uM) [%] | inhibition ([9]; Compound Concentration 1.0 uM) [%] | inhibition ([1]; Compound Concentration 10.0 uM) [%] | inhibition ([2]; Compound Concentration 10.0 uM) [%] | inhibition ([3]; Compound Concentration 10.0 uM) [%] | inhibition ([4]; Compound Concentration 10.0 uM) [%] | inhibition ([5]; Compound Concentration 10.0 uM) [%] | inhibition ([6]; Compound Concentration 10.0 uM) [%] | inhibition ([7]; Compound Concentration 10.0 uM) [%] | inhibition ([8]; Compound Concentration 10.0 uM) [%] | inhibition ([9]; Compound Concentration 10.0 uM) [%]
CCN(CC)CCCCNc1ncc2cc(-c3cc(OC)cc(OC)c3)c(NC(=O)NC(C)(C)C)nc2n1 | 12 | 4.12 | -1.83 | 6.87 | 3.2 | 36.3 | 21.2 | 14.1 | -4.79 | – | – | – | – | – | – | – | – | –
CCOC(=O)Nc1ccc2c(c1)N(C(=O)CN(CC)CC)c1ccccc1CC2 | – | – | – | – | – | – | – | – | – | 65.5 | -1.75 | -1.34 | -8.02 | -9.67 | 97.9 | 15.8 | -4.04 | 4.63
COc1ccc2c(c1)O[C@H](c1ccc(OC)c(OC)c1)C[C@@H]2NC(=O)C1(c2ccc3c(c2)OC(F)(F)O3)CC1 | – | – | – | – | – | – | – | – | – | 67.5 | 3.82 | 6.08 | -6.95 | -3.29 | 47.2 | 9.42 | 5.63 | 3.97
O=C(O)C1CN(Cc2ccc(OCc3ccc(Cl)c(Cl)c3)cc2)C1 | – | – | – | – | – | – | – | – | – | 25 | -2.44 | -0.266 | 5.13 | -3.23 | 18.1 | 12.8 | 19.2 | 10.7
CCC(=O)N1CCN(c2ccc(-n3c(=O)ccc4cnc5ccc(-c6cnc7ccccc7c6)cc5c43)cc2C(F)(F)F)CC1 | -7.49 | 3.95 | 10.6 | -7.39 | -7.57 | 59 | 24.3 | 15.3 | 6.36 | – | – | – | – | – | – | – | – | –
O[C@]1(C(F)(F)F)CCCC[C@H]1Nc1ccc(F)cc1 | 54.7 | 2.12 | -4.39 | 3.35 | 6.91 | 46.6 | 15.6 | -4.37 | 4.63 | – | – | – | – | – | – | – | – | –
COc1cccc(-c2nccc3c2CN(c2ccccc2)C3=O)c1 | 63.1 | 3.9 | 5.54 | -3.77 | 7.16 | 45.5 | 17.8 | -4.69 | 4.63 | – | – | – | – | – | – | – | – | –
Cc1ccc(C(=O)Nc2cccc(C(F)(F)F)c2)cc1Nc1nc(-c2cccnc2)nc2c1cnn2C | 14.1 | 6.36 | 5.38 | 6.48 | 3.74 | 48.5 | 23.8 | 7.35 | 0.785 | – | – | – | – | – | – | – | – | –
CCCCCCCN(CCc1ccc(SC(C)(C)C(=O)O)cc1)C(=O)Nc1ccc(F)cc1F | – | – | – | – | – | – | – | – | – | 74.5 | 3.11 | 44.6 | -8.92 | -7.12 | 50.5 | 26.9 | 26 | 5.29
CN1CCN(c2ccnc(NCCc3ccccc3)n2)CC1 | – | – | – | – | – | – | – | – | – | 69 | 6.53 | 9.82 | 2.13 | 14.1 | 50.4 | 8.97 | 16.7 | -9.83
CC(=O)Nc1c(F)cc(C(=O)N[C@H]2CC[C@H](O)CC2)cc1O[C@@H](C)c1ccccc1 | – | – | – | – | – | – | – | – | – | 61.8 | 5.95 | 12.6 | 2.28 | -0.489 | 69.8 | 12.7 | 6.45 | 5.29
Cc1c(N2CCNCC2)nc2ccc(Br)cc2c1C(=O)NC[C@H](CCC(=O)O)c1ccccc1Cl | – | – | – | – | – | – | – | – | – | 54.3 | 3.28 | -2.82 | -1.8 | 0.276 | 41.3 | 15 | 16.7 | -7.86
OCCn1cc(-c2ccc3c(c2)CCC3=NO)c(-c2ccncc2)n1 | 48.6 | 2.27 | 1.67 | 0.138 | -7.84 | 25.9 | 16.9 | -3.03 | 1.48 | – | – | – | – | – | – | – | – | –
N#Cc1cnc(Nc2cc(NC[C@H]3CNCCO3)c(C(F)(F)F)cn2)cn1 | 13.8 | 6.29 | 7.47 | -5.15 | -5.15 | 53.2 | 34.2 | 2.62 | -0.61 | – | – | – | – | – | – | – | – | –
CN(C)[C@@H]1CCN(c2cc(-c3ccccc3)nc3ccnn23)C1 | – | – | – | – | – | – | – | – | – | 79.8 | 7.63 | 7.46 | 4.86 | 22.2 | 46.8 | 16.1 | 10.5 | -6.55
COc1ccccc1-c1cc(Nc2cccc(CS(N)(=O)=O)c2)ncn1 | – | – | – | – | – | – | – | – | – | -4.72 | 3.59 | 3.23 | -4.75 | 4 | 35.8 | 19.3 | 4.56 | 7.06
O=C(Nc1cccnc1)c1cc(-c2ccnc(F)c2)ccc1OCc1ccccc1 | – | – | – | – | – | – | – | – | – | 20.7 | 2.47 | 6.84 | -5.94 | -3.53 | 52.5 | 25.3 | 3.77 | 4.27
CCC[C@@H]1CNCc2c1[nH]c(=O)c(C#N)c2N1CCC2(CC1)CC2 | – | – | – | – | – | – | – | – | – | 65.3 | 2.58 | 27.9 | -1.35 | -5.59 | 98.8 | 17.4 | 7.93 | -9.18
CCOC(=O)C1Cc2ccccc2CN1C(=O)c1ccc(SC)s1 (configuration not stated) | – | – | – | – | – | – | – | – | – | 59.4 | 0.734 | 13.5 | -1.35 | 4.36 | 98.9 | 19.5 | -2.13 | 1.34
CC(C)CC(=O)N1CCc2nc(-c3ccc(Br)cc3)nc(N(C)Cc3ccccc3)c2C1 | 55.1 | 0.688 | 5 | -9.83 | -1.25 | 35.8 | 4.46 | -1.09 | -3.26 | – | – | – | – | – | – | – | – | –
O=C(NCCCN1CCOC1=O)c1cnc(NCc2cc(Br)ccc2Br)nc1NC1CCCC1 | – | – | – | – | – | – | – | – | – | -6.01 | 4.06 | 2.35 | 5.29 | 8.58 | 48.3 | 15.1 | 8.44 | -4.1
CC(=O)Nc1ncc(CN2CCC[C@H](Cc3cc(C)nc(C)c3)C2)s1 | – | – | – | – | – | – | – | – | – | 96.5 | 6.88 | 2.54 | 1.53 | -5.08 | 48.4 | 18.4 | 9.89 | -3.26
CCc1ccc(N(CC(C)C)S(=O)(=O)c2ccc(OCC3CCOCC3)c(CO)c2)cc1 | – | – | – | – | – | – | – | – | – | 69.4 | 5.13 | 9.77 | -7.41 | -1.25 | 98.5 | 18.3 | 7 | -1.95
